In ChEMBL document CHEMBL1201862, “PubChem BioAssay data set” (2004):
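96-well plates; 48 h exposure; 5 concentrations. Endpoints by linear interpolation between flanking doses. Not reached: highest tested concentration assigned. The concentration for 50% growth inhibition is given as GI50.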 Calls of active or inactive are those of the source. Rule as the data show it: active = GI50 up to about 1.1 µM and inactive = higher.

What was measured:
Experiment in all cases: growth of human tumour cells (NCI), 48 h
LOX IMVI = system: LOX IMVI
TK-10 = system: TK-10
CCRF-CEM = system: CCRF-CEM
SK-OV-3 = system: SK-OV-3
NCI-H522 = system: NCI-H522
HOP-62 = system: HOP-62
NCI-H460 = system: NCI-H460
UO-31 = system: UO-31
M14 = system: M14
COLO 205 = system: COLO 205
A549 = system: A549
UACC-62 = system: UACC-62
SNB-19 = system: SNB-19
KM12 = system: KM12
SW-620 = system: SW-620
NCI-H226 = system: NCI-H226
CAKI-1 = system: CAKI-1
A498 = system: A498

Measured: GI50

O=S(=O)(c1cccc(N=C=S)c1)c1cccc(N=C=S)c1
inactive: LOX IMVI 17.7 µM | TK-10 20 µM | CCRF-CEM 5.51 µM | SK-OV-3 19.2 µM | NCI-H522 16.7 µM | HOP-62 11.3 µM | NCI-H460 > 10 µM | UO-31 28.7 µM | M14 11.4 µM | COLO 205 19.5 µM | A549 > 100 µM | UACC-62 19.1 µM | SNB-19 64.1 µM | KM12 27.5 µM | SW-620 > 10 µM

O=C(O/N=C1/CCCC/C1=C\c1ccccc1)c1ccc(Cl)c(Cl)c1
inactive: LOX IMVI 20 µM | NCI-H226 45.9 µM | TK-10 23.2 µM | CCRF-CEM 21.8 µM | SK-OV-3 > 100 µM | NCI-H522 18.4 µM | HOP-62 52.5 µM | NCI-H460 40.3 µM | UO-31 17.9 µM | M14 > 100 µM | COLO 205 28.2 µM | CAKI-1 27.3 µM | A549 17.5 µM | UACC-62 17.1 µM | SNB-19 69.7 µM | KM12 46.7 µM | SW-620 18.7 µM

Nc1nc(CCl)nc(Nc2ccccc2)n1
inactive: NCI-H226 26.2 µM | TK-10 24 µM | CCRF-CEM 2.14 µM | NCI-H522 1.75 µM | HOP-62 16.3 µM | NCI-H460 17.3 µM | UO-31 28.5 µM | M14 16.9 µM | COLO 205 21.8 µM | CAKI-1 12.4 µM | A549 26.2 µM | UACC-62 19 µM | SNB-19 46.6 µM | KM12 15.1 µM | SW-620 21.3 µM

Nc1ccc(C(=O)NN2C(=O)C(Cl)C2c2cc(Br)cc(Br)c2O)cc1 (centres undefined)
inactive: LOX IMVI 8.85 µM | NCI-H226 5.82 µM | TK-10 32.2 µM | CCRF-CEM 5.53 µM | SK-OV-3 11.2 µM | NCI-H522 6.75 µM | HOP-62 12.1 µM | NCI-H460 3.4 µM | UO-31 3.34 µM | M14 12.8 µM | COLO 205 48.1 µM | CAKI-1 3.66 µM | A549 14.3 µM | UACC-62 4.44 µM | SNB-19 34.1 µM | KM12 22.8 µM | SW-620 16.7 µM

COc1cc(Nc2cnc3cc(N)ccc3n2)cc(OC)c1OC
inactive: LOX IMVI 65.5 µM | TK-10 > 100 µM | CCRF-CEM 40.3 µM | SK-OV-3 69.7 µM | NCI-H522 57.5 µM | HOP-62 97.7 µM | NCI-H460 34.1 µM | UO-31 61.2 µM | M14 98.6 µM | COLO 205 > 100 µM | CAKI-1 83.4 µM | A549 > 100 µM | UACC-62 64.4 µM | SNB-19 > 100 µM | KM12 > 100 µM | SW-620 > 100 µM | A498 > 100 µM

NC1=C(NC(=O)Cc2ccccc2F)C(=O)c2ccccc2C1=O
inactive: NCI-H226 > 100 µM | TK-10 41.2 µM | CCRF-CEM > 100 µM | NCI-H522 21.6 µM | HOP-62 25.5 µM | NCI-H460 47.2 µM | UO-31 92.7 µM | M14 > 100 µM | COLO 205 > 100 µM | CAKI-1 > 100 µM | A549 59.3 µM | UACC-62 37.8 µM | SNB-19 35.8 µM | KM12 > 100 µM | SW-620 97.3 µM

COc1ccc2c3c([nH]c2c1[N+](=O)[O-])C(C)N(C(=O)/C=C/c1ccccc1)CC3 (centres undefined)
inactive: LOX IMVI 2.92 µM | NCI-H226 10.9 µM | TK-10 60.3 µM | CCRF-CEM 3.29 µM | NCI-H522 2.9 µM | HOP-62 5.28 µM | NCI-H460 2.96 µM | UO-31 28 µM | M14 5.92 µM | COLO 205 3.46 µM | CAKI-1 3.66 µM | A549 14.3 µM | UACC-62 2.07 µM | SNB-19 36.9 µM | KM12 4.24 µM | SW-620 3.56 µM | A498 2.62 µM

c1cnn(CN(Cn2cccn2)Cn2cccn2)c1
inactive: LOX IMVI > 100 µM | TK-10 > 100 µM | CCRF-CEM > 100 µM | SK-OV-3 > 100 µM | NCI-H522 > 100 µM | HOP-62 > 100 µM | NCI-H460 > 100 µM | UO-31 > 100 µM | M14 > 100 µM | COLO 205 > 100 µM | CAKI-1 > 100 µM | A549 > 100 µM | UACC-62 35.9 µM | SNB-19 > 100 µM | KM12 > 100 µM | SW-620 > 100 µM | A498 > 100 µM

CC(C)CCCC(C)C1CCC2C3CC([N+](=O)[O-])=C4CC(O)CCC4(C)C3CCC12C (centres undefined)
inactive: LOX IMVI 19.6 µM | TK-10 21 µM | CCRF-CEM 18.2 µM | NCI-H522 17.5 µM | HOP-62 19.9 µM | M14 13.4 µM | COLO 205 24.3 µM | CAKI-1 24.1 µM | A549 23.2 µM | UACC-62 19.9 µM | KM12 16.4 µM | SW-620 25.9 µM | A498 21.8 µM

Cn1c(NC(=O)NC23CC4CC(CC(C4)C2)C3)nc2ccccc21
inactive: LOX IMVI > 100 µM | NCI-H226 93.5 µM | TK-10 39.5 µM | SK-OV-3 17.4 µM | NCI-H522 78.7 µM | HOP-62 30.5 µM | NCI-H460 38.4 µM | UO-31 > 100 µM | M14 47.8 µM | COLO 205 > 100 µM | CAKI-1 48.6 µM | A549 > 100 µM | UACC-62 40.1 µM | SNB-19 95.1 µM | KM12 > 100 µM | SW-620 > 100 µM

C/C(CCn1[nH]c(=O)ccc1=O)=N\N=C(N)N
inactive: LOX IMVI > 100 µM | NCI-H226 > 100 µM | TK-10 > 100 µM | CCRF-CEM > 100 µM | HOP-62 > 100 µM | NCI-H460 > 100 µM | UO-31 > 100 µM | M14 > 100 µM | CAKI-1 > 100 µM | A549 > 100 µM | UACC-62 > 100 µM | SNB-19 > 100 µM | KM12 > 100 µM | SW-620 > 100 µM | A498 > 100 µM

O=S(=O)(SCCCCSS(=O)(=O)c1ccc(Cl)cc1)c1ccc(Cl)cc1
inactive: LOX IMVI 3.39 µM | TK-10 21.3 µM | CCRF-CEM 1.85 µM | SK-OV-3 15.3 µM | NCI-H522 5.06 µM | HOP-62 20.1 µM | NCI-H460 14.4 µM | UO-31 9.04 µM | M14 14.6 µM | COLO 205 14.9 µM | CAKI-1 12.7 µM | A549 13.5 µM | UACC-62 12.2 µM | SNB-19 10.2 µM | KM12 9.68 µM | SW-620 9.46 µM | A498 16.6 µM

CCNC(=O)c1ccc(C)c(/N=N/N(C)C)c1
inactive: LOX IMVI > 100 µM | TK-10 > 100 µM | NCI-H522 81.1 µM | HOP-62 > 100 µM | NCI-H460 > 100 µM | UO-31 > 100 µM | M14 > 100 µM | CAKI-1 > 100 µM | A549 > 100 µM | UACC-62 > 100 µM | SNB-19 > 100 µM | KM12 > 100 µM | SW-620 > 100 µM

CC1=C(C(=O)Nc2ccccc2C)C(c2ccc(N(C)C)cc2)C(C(=O)Nc2ccccc2C)=C(C)N1
inactive: LOX IMVI 56.8 µM | NCI-H226 > 100 µM | TK-10 > 100 µM | CCRF-CEM 31.8 µM | SK-OV-3 > 100 µM | NCI-H522 37.8 µM | HOP-62 28.6 µM | NCI-H460 63.8 µM | UO-31 55.2 µM | COLO 205 > 100 µM | A549 94 µM | UACC-62 44.3 µM | SNB-19 > 100 µM | KM12 48.4 µM | SW-620 51.8 µM | A498 > 100 µM

O=[N+]([O-])c1ccc(C2=NN(c3ccccc3)C[N+](c3ccc(Br)cc3)=N2)cc1
inactive: NCI-H226 > 100 µM | TK-10 > 100 µM | SK-OV-3 > 100 µM | NCI-H522 38.1 µM | HOP-62 > 100 µM | NCI-H460 > 100 µM | UO-31 > 100 µM | M14 > 100 µM | COLO 205 > 100 µM | CAKI-1 > 100 µM | A549 82 µM | UACC-62 > 100 µM | SNB-19 > 100 µM | KM12 > 100 µM | SW-620 > 100 µM | A498 > 100 µM

O=C(c1ccccc1)C(C(=O)c1ccccc1)C1(O)C(=O)c2ccccc2C1=O
inactive: LOX IMVI 32.4 µM | NCI-H226 37.1 µM | TK-10 3.01 µM | CCRF-CEM 20.4 µM | SK-OV-3 48.8 µM | NCI-H522 14.1 µM | HOP-62 29.4 µM | UO-31 36.1 µM | M14 26.9 µM | COLO 205 45.4 µM | A549 29.3 µM | UACC-62 32.6 µM | SNB-19 37.3 µM | KM12 51.5 µM | SW-620 38.7 µM | A498 47.4 µM

CN/C=C(/c1ccc(OC)cc1)C(O)c1ccc(OC)c(OC)c1 (centres undefined)
inactive: LOX IMVI > 100 µM | NCI-H226 > 100 µM | TK-10 > 100 µM | CCRF-CEM > 100 µM | SK-OV-3 > 100 µM | NCI-H522 > 100 µM | HOP-62 > 100 µM | NCI-H460 > 100 µM | UO-31 > 100 µM | M14 > 100 µM | COLO 205 > 100 µM | A549 > 100 µM | UACC-62 > 100 µM | SNB-19 > 100 µM | KM12 > 100 µM | SW-620 > 100 µM | A498 > 100 µM
